We go through 19 compounds from PubChem BioAssay (NCI).

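These data come from cells grown in 96-well plates and exposed to compound for 48 hours at five concentrations. At the GI50, growth is halved. The concentration for full growth arrest is given as TGI.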

Test in all cases: NCI-60 cell line screen, 48 h
The test system of assay [1] is DU-145 prostate.
Assay [2] deals with COLO 205 colon.
In assay [3] the test system is SW-620 colon.
Assay [4] concerns LOX IMVI melanoma.
For assay [5], the system named is HCC-2998 colon.
For assay [6], the system named is A549 NSCLC.
Assay [7] deals with SN12C renal.
The subject of assay [8] is NCI-H23 lung.
The test system of assay [9] is T-47D breast.
The test system of assay [10] is MCF7 breast.

Take `Cc1c(Sc2ccccc2)[n+](=O)c2cc(Cl)c(Cl)cc2n1[O-]`: the GI50 in assay [1] was 23.4 µM; in assay [2], 49 µM; in assay [3], 29.5 µM; in assay [4] it was 18.4 µM; in assay [5] it was 34.1 µM; in assay [6], above 100 µM. Moreover, the GI50 in assay [7] is above 100 µM; in [8] it was 33.2 µM; in [9], 36.2 µM; in assay [10], 38.3 µM. The TGI is 44.8 µM in [1]; above 100 µM in assay [2]; 96.1 µM in [3]; 36.7 µM in assay [4]; above 100 µM in assay [5]; above 100 µM in [6]. In addition, the TGI in assay [7], in [8], in assay [9] and in assay [10] was above 100 µM in each case.
`COc1cc2c3c(n(CCCN=[N+]=[N-])c(=O)c2cc1OC)-c1ccc(N(C)C)cc1C3=O`: the GI50 in assay [1], in assay [2], in [3], in assay [4], in [5] and in assay [6] was above 100 µM each time. Besides, the GI50 in [7], in assay [8], in [9] and in [10] was above 100 µM throughout. The TGI in assay [1], in [2], in [3], in [4], in assay [5] and in assay [6] was above 100 µM each time. For the same compound, the TGI in assay [7], in assay [8], in [9] and in assay [10] was above 100 µM each time.
Consider `Clc1nc(Cl)c2ncn(Cc3ccc(Cn4cnc5c(Cl)nc(Cl)nc54)cc3)c2n1`, for which the TGI is 10 µM in [1]; above 100 µM in assay [2]; 8.91 µM in [3]; 14.9 µM in assay [4]; 24 µM in [5]; 25.5 µM in [6]. Besides, the TGI in assay [7] was 32.4 µM; in assay [8], 22.8 µM; in assay [9], above 36.7 µM; in assay [10], 14.9 µM. The GI50 was above 100 µM in assay [2]; 0.96 µM in assay [4]; 11 µM in assay [5]; 11.5 µM in [6]; 12.1 µM in [7]; 2.02 µM in [8]. The GI50 was 12.4 µM in [9] and 2.22 µM in [10].
Turning to `C=C1c2c(Cl)ccc(O)c2C(O)=C2C(=O)[C@]3(O)C(O)=C(C(N)=O)C(=O)[C@@H](N(C)C)[C@@H]3[C@@H](O)[C@H]12`, the GI50 in [1] is 1.62 µM; in [2], 1.11 µM; in assay [3] it was 1.5 µM; in assay [4] it was 0.924 µM; in assay [5], 1.32 µM; in assay [6], 1.39 µM. The GI50 in assay [7] is 1.38 µM; in [8] it was 1.08 µM; in assay [9], 1.07 µM; in [10], 1.76 µM. Besides, the TGI was 9.15 µM in assay [1]; 3.02 µM in assay [2]; above 50 µM in assay [3]; 3.59 µM in assay [4]; 5.61 µM in assay [5]; 16.6 µM in assay [6]. Further, the TGI in assay [7] is 12.4 µM; in assay [8], 4.14 µM; in assay [9], 4.06 µM; in [10] it was 6.66 µM.
Take `CC(Br)C(=O)Nc1ccc(C(=O)O)c(O)c1` (stereo unspecified): the TGI in [1] was above 100 µM; in assay [2], above 100 µM; in [3], above 100 µM; in [4], above 100 µM; in [6] it was above 100 µM; in assay [7], 66.1 µM. For the same compound, the TGI in [8] is 68.9 µM; in [9] it was above 100 µM; in assay [10], above 100 µM.
Consider `O=S(=O)(NCCNc1nccc(-c2c(-c3ccc(F)cc3)nc3sccn23)n1)c1ccccc1`, for which the GI50 in assay [1] was 5.14 µM; in [2], 2.23 µM; in [3], 6.55 µM; in assay [4], 3.41 µM; in [5], 22.4 µM; in assay [6] it was 1.93 µM. The GI50 is 6.86 µM in [7], 16.2 µM in assay [8], 1.79 µM in assay [9] and 0.722 µM in assay [10]. For the same compound, the TGI in [1] is above 100 µM; in assay [2], above 100 µM; in assay [3], above 100 µM; in assay [4], 93.1 µM; in assay [5], above 100 µM; in assay [6], above 100 µM. The TGI was above 100 µM in assay [7], above 100 µM in assay [8], 27.3 µM in [9] and above 100 µM in [10].
`NCCSCCc1ccccc1`: the TGI in assay [1], in [2], in [3], in assay [4], in [5] and in [6] was above 100 µM in each case. Further, the TGI in assay [7], in assay [8], in assay [9] and in assay [10] was above 100 µM each time.
Consider `CO[C@H]1CC(c2ccc[nH]2)=N[C@]12O[C@@H](C)C[C@@H]1CCCCCCCc3ccc([nH]3)[C@H]12`, for which the GI50 is 1.49 µM in assay [1]; 0.794 µM in assay [2]; 1.05 µM in assay [3]; 0.52 µM in [4]; 0.814 µM in assay [5]; 1.04 µM in assay [6]. Besides, the GI50 in assay [7] was 1.49 µM; in assay [8] it was 1.21 µM; in assay [9] it was 0.732 µM; in assay [10], 0.968 µM. For the same compound, the TGI in assay [1] is above 23.1 µM; in assay [2] it was 4.68 µM; in assay [3] it was 7.96 µM; in assay [4] it was 1.26 µM; in [5], 5.54 µM; in assay [6] it was 7.31 µM. Moreover, the TGI in [7] is 18.9 µM; in assay [8], 8.03 µM; in assay [9], above 19.2 µM; in assay [10], above 16.7 µM.
As for `Oc1ccc(Cl)cc1CNc1nc2ccccc2[nH]1`, the GI50 is 16.2 µM in assay [1]; 16.8 µM in [2]; 15.5 µM in [3]; 13.7 µM in assay [4]; 16.5 µM in assay [5]; 12.7 µM in [6]. Further, the GI50 is 13.7 µM in assay [7], 14.3 µM in assay [8], 13.3 µM in [9] and 10.4 µM in [10]. Besides, the TGI in [1] stood at 32.4 µM; in assay [2], 32.9 µM; in assay [3] it was 31.9 µM; in [4], 28.8 µM; in assay [5] it was 32 µM; in assay [6], 30.2 µM. Besides, the TGI in assay [7] was found to be 29.4 µM; in [8], 33.1 µM; in assay [9] it was 47.9 µM; in assay [10], 33.1 µM.
With `CSc1cccc(NC(=O)OC2CCCCCCCCCCC2)c1`, the TGI is above 100 µM in assay [1]; 28.3 µM in assay [2]; 45.9 µM in assay [3]; 35.1 µM in assay [4]; above 100 µM in [6]; 33.2 µM in assay [7]. For the same compound, the figures for the TGI in [8], in assay [9] and in [10] were 98 µM, above 100 µM and 60.4 µM, respectively.
With `O=C(Nc1ccc(Cl)c(Cl)c1)OCCN1c2ccccc2Sc2ccccc21`, the TGI in assay [1], in [2], in assay [3], in assay [4], in assay [5] and in assay [6] was above 10 µM throughout. The TGI in assay [7], in assay [8], in assay [9] and in assay [10] was above 10 µM in each case.
Turning to `CC(C)COC(=O)c1ccc2[nH]c(O)c(C=Nc3ccc(S(N)(=O)=O)cc3)c2c1`, the GI50 in assay [1] was 0.805 µM; in [2], 0.532 µM; in assay [3] it was 0.671 µM; in assay [4], 0.666 µM; in [5], 3.27 µM; in assay [6], 1.74 µM. For the same compound, the GI50 was 1.21 µM in assay [7], 1.33 µM in [8], 2.51 µM in assay [9] and 1.24 µM in [10]. In addition, the TGI in assay [1] was found to be 3.8 µM; in assay [2] it was 1.91 µM; in [3], 3.83 µM; in assay [4], 4.06 µM; in [5], 9.03 µM; in [6] it was 5.88 µM. The TGI in assay [7] was found to be 7.94 µM; in assay [8], 5.11 µM; in [9], 12.6 µM; in [10], 4.5 µM.
As for `O=C1C=CC(O)C2C1CC13SSC4(CC5C(=O)C=CC(O)C5N4C1=O)C(=O)N23` (stereo unspecified), the TGI in assay [1] worked out at 1.07 µM; in assay [2], 1.04 µM; in assay [3], 0.136 µM; in [4] it was 0.193 µM; in assay [6], 10.8 µM; in [7], 0.743 µM. Further, the TGI was 0.393 µM in assay [8], 2.53 µM in [9] and above 100 µM in assay [10].
For `O=C1CC(c2ccc(Cl)cc2)Oc2ccccc21` (stereo unspecified), the TGI is above 100 µM in assay [1]; 89.1 µM in assay [2]; above 100 µM in [3]; 93.6 µM in assay [4]; 55 µM in [5]; 40.2 µM in assay [8]. Further, the TGI is above 100 µM in assay [9] and 13.6 µM in assay [10].
Consider `O=[N+]([O-])c1ccc(S(=O)(=O)Cc2ccccc2)c2nonc12`, for which the TGI in assay [1] is 36.3 µM; in assay [2] it was 31.1 µM; in [3] it was 48.6 µM; in assay [4] it was 38.2 µM; in assay [6], 83.8 µM; in [7], 28.5 µM. Further, the TGI in assay [8] turned out to be 35.5 µM; in [9], 39.8 µM; in assay [10], 43 µM.
As to `CCCNc1nc2ccccc2c2c1S(=O)(=O)c1ccc(Cl)cc1C2=O`, the GI50 in [1] was 1.57 µM; in [2], 2.1 µM; in [4], 1.28 µM; in assay [5], 1.62 µM; in assay [6] it was 1.99 µM; in [7], 0.648 µM. Also, the GI50 is 1.66 µM in assay [8], 1.35 µM in assay [9] and 1.09 µM in assay [10]. Besides, the TGI in [1] is above 50 µM; in [2] it was above 50 µM; in assay [4], above 50 µM; in [5], 34.4 µM; in assay [6], above 50 µM; in [7], 3.24 µM. Moreover, the TGI in assay [8], in assay [9] and in assay [10] was above 50 µM throughout.
Turning to `COc1cc(Cl)cc(-c2nn(-c3cccc(NC(=O)Nc4ccc(Cl)c(C(F)(F)F)c4)c3)cc2-c2ccncc2)c1`, the GI50 in assay [1] is 1.86 µM; in [2], 1.53 µM; in [3] it was 1.61 µM; in assay [5] it was 2.91 µM; in assay [6], 0.678 µM; in assay [7], 1.56 µM. Besides, the GI50 in assay [8] was 1.36 µM; in assay [9], 1.25 µM; in assay [10], 1.01 µM. Also, the TGI amounted to 14 µM in [1]; 3.11 µM in assay [2]; 10.5 µM in [3]; 9.02 µM in assay [5]; 10.8 µM in [6]; 8.21 µM in assay [7]. Besides, the TGI in assay [8] turned out to be 6.23 µM; in [9] it was 8.02 µM; in assay [10] it was 11 µM.
With `O=C1OC(CN2CCOCC2)CN1/N=C/c1ccc([N+](=O)[O-])o1` (stereo unspecified), the TGI in assay [1] is above 100 µM; in assay [2] it was above 100 µM; in [3], above 100 µM; in assay [4], 59.6 µM; in assay [6], above 100 µM; in assay [7], 92 µM. Also, the TGI was 53.9 µM in assay [8], above 100 µM in assay [9] and above 100 µM in assay [10].
Turning to `O=C1OC(OCC#CCOC2OC(=O)C(Cl)=C2Cl)C(Cl)=C1Cl` (stereo unspecified), the TGI was determined as 38.2 µM in assay [1]; 18.4 µM in [3]; 11.1 µM in assay [4]; 14.3 µM in assay [5]; 38.9 µM in assay [6]; 32.5 µM in assay [7]. Further, the results for the TGI in assay [8], in assay [9] and in [10] were 40.9 µM, 36.7 µM and 21.8 µM, respectively.
